Source: ChEMBL document CHEMBL1201862, “PubChem BioAssay data set” (2004)
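1) Cells in 96-well plates. 2) Compound, 48 h, 5 concentrations. 3) Linear interpolation between surrounding doses. 4) Unreached endpoint = highest concentration. At the GI50, growth is halved.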 Calls of active or inactive are those of the source. Rule as the data show it: active = GI50 up to about 1.1 µM and inactive = higher.

Key:
Test in all cases: inhibition of tumour cell growth, NCI panel, 48 h
DMS-273 = system: DMS-273
OVCAR-4 = system: OVCAR-4
UO-31 = system: UO-31
SNB-19 = system: SNB-19
SF-268 = system: SF-268
MOLT-4 = system: MOLT-4
HOP-92 = system: HOP-92
OVCAR-3 = system: OVCAR-3
Malme-3M = system: Malme-3M
RXF 393 = system: RXF 393
SK-MEL-28 = system: SK-MEL-28
UACC-62 = system: UACC-62
SR = system: SR
SNB-75 = system: SNB-75
HT-29 = system: HT-29
786-0 = system: 786-0
OVCAR-5 = system: OVCAR-5
UACC-257 = system: UACC-257
SNB-78 = system: SNB-78
HOP-18 = system: HOP-18
M19-MEL = system: M19-MEL
SW-620 = system: SW-620
SF-539 = system: SF-539
IGROV-1 = system: IGROV-1
SN12C = system: SN12C
SF-295 = system: SF-295
CCRF-CEM = system: CCRF-CEM
KM-20L2 = system: KM-20L2
SK-MEL-2 = system: SK-MEL-2
NCI-H226 = system: NCI-H226
TK-10 = system: TK-10
ACHN = system: ACHN
M14 = system: M14
HL-60 = system: HL-60
HOP-62 = system: HOP-62
SK-OV-3 = system: SK-OV-3
NCI-H460 = system: NCI-H460
XF498 = system: XF498
COLO 205 = system: COLO 205
A498 = system: A498
HCT-15 = system: HCT-15
NCI-H23 = system: NCI-H23
LOX IMVI = system: LOX IMVI
OVCAR-8 = system: OVCAR-8
HCT-116 = system: HCT-116
A549 = system: A549
HCC 2998 = system: HCC 2998
U-251 = system: U-251
DLD-1 = system: DLD-1
CAKI-1 = system: CAKI-1
LXFL 529 = system: LXFL 529
NCI-H522 = system: NCI-H522
K562 = system: K562
KM12 = system: KM12
DMS-114 = system: DMS-114
EKVX = system: EKVX
RPMI-8226 = system: RPMI-8226
RXF 631 = system: RXF 631
SK-MEL-5 = system: SK-MEL-5

Question: Which GI50 (DMS-273) does the source give for `O=C(O)C1=C(C(=O)O)Oc2ccccc2O1` here?
Answer: > 100 µM (inactive)

Question: What about the GI50 (OVCAR-4) of the same compound?
Answer: > 100 µM (inactive)

Question: What about the GI50 (UO-31) of the same compound?
Answer: > 100 µM (inactive)

Question: And the GI50 (SNB-19)?
Answer: > 100 µM (inactive)

Question: And the GI50 (SF-268)?
Answer: > 100 µM (inactive)

Question: And the GI50 (MOLT-4)?
Answer: > 100 µM (inactive)

Question: What about the GI50 (HOP-92) of the same compound?
Answer: > 100 µM (inactive)

Question: And the GI50 (OVCAR-3)?
Answer: > 100 µM (inactive)

Question: And the GI50 (Malme-3M)?
Answer: > 100 µM (inactive)

Question: And the GI50 (RXF 393)?
Answer: > 100 µM (inactive)

Question: What about the GI50 (SK-MEL-28) of the same compound?
Answer: > 100 µM (inactive)

Question: And the GI50 (UACC-62)?
Answer: > 100 µM (inactive)

Question: And the GI50 (SR)?
Answer: > 100 µM (inactive)

Question: And the GI50 (SNB-75)?
Answer: > 100 µM (inactive)

Question: What about the GI50 (HT-29) of the same compound?
Answer: > 100 µM (inactive)

Question: What about the GI50 (786-0) of the same compound?
Answer: > 100 µM (inactive)

Question: And the GI50 (OVCAR-5)?
Answer: > 100 µM (inactive)

Question: What about the GI50 (UACC-257) of the same compound?
Answer: > 100 µM (inactive)

Question: What about the GI50 (SNB-78) of the same compound?
Answer: > 100 µM (inactive)

Question: And the GI50 (HOP-18)?
Answer: > 100 µM (inactive)

Question: And the GI50 (M19-MEL)?
Answer: > 100 µM (inactive)

Question: What about the GI50 (SW-620) of the same compound?
Answer: > 100 µM (inactive)

Question: And the GI50 (SF-539)?
Answer: > 100 µM (inactive)

Question: And the GI50 (IGROV-1)?
Answer: > 100 µM (inactive)

Question: And the GI50 (SN12C)?
Answer: > 100 µM (inactive)

Question: What about the GI50 (SF-295) of the same compound?
Answer: > 100 µM (inactive)

Question: And the GI50 (CCRF-CEM)?
Answer: > 100 µM (inactive)

Question: And the GI50 (KM-20L2)?
Answer: > 100 µM (inactive)

Question: What about the GI50 (SK-MEL-2) of the same compound?
Answer: > 100 µM (inactive)

Question: What about the GI50 (NCI-H226) of the same compound?
Answer: > 100 µM (inactive)

Question: And the GI50 (TK-10)?
Answer: > 100 µM (inactive)

Question: What about the GI50 (ACHN) of the same compound?
Answer: > 100 µM (inactive)

Question: And the GI50 (M14)?
Answer: > 100 µM (inactive)

Question: What about the GI50 (HL-60) of the same compound?
Answer: > 100 µM (inactive)

Question: What about the GI50 (HOP-62) of the same compound?
Answer: > 100 µM (inactive)

Question: What about the GI50 (SK-OV-3) of the same compound?
Answer: > 100 µM (inactive)

Question: What about the GI50 (NCI-H460) of the same compound?
Answer: > 100 µM (inactive)

Question: And the GI50 (XF498)?
Answer: > 100 µM (inactive)

Question: What about the GI50 (COLO 205) of the same compound?
Answer: > 100 µM (inactive)

Question: And the GI50 (A498)?
Answer: > 100 µM (inactive)

Question: And the GI50 (HCT-15)?
Answer: > 100 µM

Question: And the GI50 (NCI-H23)?
Answer: > 100 µM (inactive)

Question: What about the GI50 (LOX IMVI) of the same compound?
Answer: > 100 µM (inactive)

Question: What about the GI50 (OVCAR-8) of the same compound?
Answer: > 100 µM (inactive)

Question: And the GI50 (HCT-116)?
Answer: > 100 µM (inactive)

Question: What about the GI50 (A549) of the same compound?
Answer: > 100 µM (inactive)

Question: And the GI50 (HCC 2998)?
Answer: > 100 µM (inactive)

Question: What about the GI50 (U-251) of the same compound?
Answer: > 100 µM (inactive)

Question: What about the GI50 (DLD-1) of the same compound?
Answer: > 100 µM (inactive)

Question: And the GI50 (CAKI-1)?
Answer: > 100 µM (inactive)

Question: And the GI50 (LXFL 529)?
Answer: > 100 µM (inactive)

Question: What about the GI50 (NCI-H522) of the same compound?
Answer: > 100 µM (inactive)

Question: What about the GI50 (K562) of the same compound?
Answer: > 100 µM (inactive)

Question: What about the GI50 (KM12) of the same compound?
Answer: > 100 µM (inactive)

Question: What about the GI50 (DMS-114) of the same compound?
Answer: > 100 µM (inactive)

Question: And the GI50 (EKVX)?
Answer: > 100 µM (inactive)

Question: Which results are given for `CC1=C(/C=C/C(C)=C/C=C/C(C)=C/C=C/C=C(C)/C=C/C=C(C)/C=C/C=C(C)/C=C/C=C(\C)C(=O)O)C(C)(C)CCC1`?
Answer: GI50 (DMS-273): > 100 µM (inactive); GI50 (OVCAR-4): > 100 µM (inactive); GI50 (UO-31): > 100 µM (inactive); GI50 (SNB-19): > 100 µM (inactive); GI50 (SF-268): > 100 µM (inactive); GI50 (MOLT-4): > 100 µM (inactive); GI50 (OVCAR-3): > 100 µM (inactive); GI50 (Malme-3M): > 100 µM (inactive); GI50 (RXF 393): > 100 µM (inactive); GI50 (SK-MEL-28): > 100 µM (inactive); GI50 (UACC-62): > 100 µM (inactive); GI50 (SNB-75): 69 µM (inactive); GI50 (HT-29): > 100 µM (inactive); GI50 (786-0): > 100 µM (inactive); GI50 (OVCAR-5): > 100 µM (inactive); GI50 (UACC-257): > 100 µM (inactive); GI50 (SNB-78): > 100 µM (inactive); GI50 (HOP-18): < 0.01 µM (active); GI50 (SW-620): > 100 µM (inactive); GI50 (SF-539): > 100 µM (inactive); GI50 (IGROV-1): > 100 µM (inactive); GI50 (SN12C): > 100 µM (inactive); GI50 (SF-295): > 100 µM (inactive); GI50 (CCRF-CEM): > 100 µM (inactive); GI50 (KM-20L2): > 100 µM (inactive); GI50 (SK-MEL-2): > 100 µM (inactive); GI50 (RPMI-8226): > 100 µM (inactive); GI50 (NCI-H226): > 100 µM (inactive); GI50 (TK-10): > 100 µM (inactive); GI50 (ACHN): > 100 µM (inactive); GI50 (M14): > 100 µM (inactive); GI50 (HOP-62): > 100 µM (inactive); GI50 (SK-OV-3): > 100 µM (inactive); GI50 (NCI-H460): > 100 µM (inactive); GI50 (COLO 205): > 100 µM (inactive); GI50 (A498): > 100 µM (inactive); GI50 (HCT-15): > 100 µM; GI50 (NCI-H23): > 100 µM (inactive); GI50 (OVCAR-8): > 100 µM (inactive); GI50 (HCT-116): > 100 µM (inactive); GI50 (A549): > 100 µM (inactive); GI50 (U-251): > 100 µM (inactive); GI50 (DLD-1): > 100 µM (inactive); GI50 (CAKI-1): > 100 µM (inactive); GI50 (LXFL 529): > 100 µM (inactive); GI50 (NCI-H522): > 100 µM (inactive); GI50 (RXF 631): > 100 µM (inactive); GI50 (K562): > 100 µM (inactive); GI50 (KM12): > 100 µM (inactive); GI50 (SK-MEL-5): > 100 µM (inactive); GI50 (DMS-114): > 100 µM (inactive); GI50 (EKVX): > 100 µM (inactive)
